Entries after “also recorded” stand apart in the source; their conditions may differ. Like-named read-outs stand apart in the source and are kept apart here.
How the values were obtained:
[1] = target: T1, VAP-1 (Homo sapiens, UniProt Q16853); experiment: Compound 1 10 mg QD for 12 weeks in adults with non-cirrhotic NASH phenotype; type: in vivo
T1 construct: from tissue; host or cells: plasma of trial patients
T1 sequence (Q16853 29-763 limits assumed): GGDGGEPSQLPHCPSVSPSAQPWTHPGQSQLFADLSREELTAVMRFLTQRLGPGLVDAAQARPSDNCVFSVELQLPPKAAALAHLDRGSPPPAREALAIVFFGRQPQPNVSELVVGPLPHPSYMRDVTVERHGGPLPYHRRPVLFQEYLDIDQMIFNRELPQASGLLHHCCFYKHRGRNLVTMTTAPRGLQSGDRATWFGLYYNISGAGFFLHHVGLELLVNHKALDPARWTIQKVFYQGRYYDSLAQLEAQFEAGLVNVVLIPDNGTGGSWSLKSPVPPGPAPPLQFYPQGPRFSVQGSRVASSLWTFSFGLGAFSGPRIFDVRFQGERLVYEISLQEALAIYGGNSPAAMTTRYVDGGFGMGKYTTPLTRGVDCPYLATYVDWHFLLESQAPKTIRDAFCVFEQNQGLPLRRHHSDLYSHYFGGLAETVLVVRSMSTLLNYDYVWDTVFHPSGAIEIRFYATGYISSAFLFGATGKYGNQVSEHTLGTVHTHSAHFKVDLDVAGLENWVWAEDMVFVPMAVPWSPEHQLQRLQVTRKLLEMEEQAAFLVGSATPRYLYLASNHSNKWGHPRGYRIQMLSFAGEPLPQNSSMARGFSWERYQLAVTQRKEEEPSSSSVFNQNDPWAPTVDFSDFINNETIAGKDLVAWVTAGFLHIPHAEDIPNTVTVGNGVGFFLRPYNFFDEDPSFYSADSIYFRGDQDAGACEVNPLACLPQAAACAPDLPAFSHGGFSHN
Procedure: Part 1 interim analysis primary endpoint was safety assessed by adverse events (AEs) and laboratory tests; percent change from baseline (BL) in plasma VAP-1 activity was a secondary endpoint. Exploratory imaging and blood-based biomarkers of liver inflammation and fibrosis were also assessed. Analyses of change (or percent change) from baseline used an ANCOVA model with change (or percent change) from baseline as the dependent variable including treatment group and randomization strata as fixed effects and baseline as a covariate.

[2] = Single-ascending dose trial of Compound 1 in healthy participants: safety and plasma PK
Procedure: SSAO inhibition was determined by measuring relative reductions in plasma H2O2 generation after addition of an exogenous substrate (benzylamine). […] Safety was assessed for 7 (±3) days after dosing.
Plasma PK parameters were determined by non-compartmental analysis. […] Percent change in total amine oxidase activity was determined relative to the corresponding pre-dose (baseline) samples.

[3] = Pharmacokinetic evaluation in SD rats; type: in vivo, rat; conditions: 2.0 mg/kg intragastric
Procedure: Drug Preparation: a certain amount of the drug was taken and added into a 2% Klucel LF+0.1% Tween 80 aqueous solution, to prepare a clear solution or a uniform suspension.
Dosage: SD rats were fasted overnight and given the drug by intragastric infusion at an administrated dose of 2 mg/kg and an administrated volume of 10 mL/kg each.
Operation: rats were dosed by intragastric infusion with the compounds. […] The heparinized sample tubes were then stored at −20° C., and the rats were allowed to eat food 2 h after the dosage.
Determination of contents of the compounds to be tested in the plasma of rats after intragastric infusion of the drugs at different concentrations: the plasma samples were thawed at room temperature, 50 μL each was taken and added into 130 μL of an internal standard working solution (1000 ng/mL, acetonitrile, tolbutamide), and the mixture was whirled for about 1 min and then centrifugated at 4° C. and 13000 rpm for 10 min. 50 μL of the supernatant was taken and mixed with 100 μL of 50% acetonitrile water, and then introduced for LC/MS/MS analysis.

[4] = Multiple-ascending dose trial of Compound 2 in healthy participants; type: in vivo, human; conditions: for Cmax / AUC / half-life: human, plasma, oral; for AUC: read-out: AUCtau (mean); for half-life: read-out: t1/2 (median) (converted)
Procedure: A multiple-ascending dose clinical trial of Compound 2 was performed.
Compound 2 plasma and urine concentrations were determined using validated liquid chromatography-tandem mass spectrometry assay.
Plasma samples for Compound 2 concentration and PK sampling were collected pre-dose and at 0.5, 1, 2, 3, 4, 6, 8, 12, and 24 hours after the first dose, at pre-dose on Days 3, 4, 5, 8, 11, and 13 of dosing, and at pre-dose and at 0.5, 1, 2, 3, 4, 6, 8, 12, 24, 48, and 72 hours after 14 days of administration of study medication (placebo or compound). (See Table 16, FIG. 17) PK parameters were estimated via noncompartmental methods using Phoenix® WinNonlin® (Certara, LP, Princeton, N.J.). Concentrations of serum pharmacodynamic (PD) biomarkers apolipoprotein B (Apo B) and sex hormone binding globulin (SHBG) were measured using an immunoassay and serum lipids were determined using spectrophotometry.
PD sampling was also performed. Percent change from baseline for PD markers were calculated using an ANCOVA model with percent change from baseline as dependent variable, treatment group as fixed effect, and baseline as covariate. Analyses used observed data only without imputation for missing data.

[5] = all single-dose cohorts, 1-10 mg or placebo (n = 32)
[6] = single dose 1 mg or placebo (n = 8)
[7] = single dose 3 mg or placebo (n = 8)
[8] = single dose 6 mg or placebo (n = 8)
[9] = single dose 10 mg or placebo (n = 8)

COC1CCN(c2ncc(OC/C(=C/F)CN)cn2)CC1 [Compound 1, (E)-3-fluoro-2-(((2-(4-methoxypiperidin-1-yl)pyrimidin-5-yl)oxy)methyl)prop-2-en-1-amine]
change from BL in cT1, liver fat fraction, liver enzymes, or cytokeratin-18 vs placebo ([1]; 10 mg QD 12 weeks): no statistically significant differences
safety and tolerability ([1]; 10 mg QD 12 weeks): well-tolerated with a safety profile similar to placebo
inhibition at 10 mg ([1]; 10 mg QD, most subjects, by week 2, sustained through week 12, read-out: inhibition of plasma VAP-1 activity): > 98%
Subject incidence of TEAEs considered possibly treatment-related [2, 5]: 1 (3.1)
Subject incidence of any TEAE [2, 5]: 5 (15.6)
TEAE frequency: constipation [2, 5]: 1 (3.1)
TEAE frequency: contact dermatitis [2, 5]: 2 (6.3)
TEAE frequency: dysgeusia [2, 5]: 1 (3.1)
TEAE frequency: headache [2, 5]: 1 (3.1)
TEAE frequency: sore throat [2, 5]: 1 (3.1)
TEAE frequency: upper respiratory tract infection [2, 5]: 1 (3.1)
Subject incidence of TEAEs considered possibly treatment-related [2, 6]: 0
Subject incidence of any TEAE [2, 6]: 0
TEAE frequency: constipation [2, 6]: 0
TEAE frequency: contact dermatitis [2, 6]: 0
TEAE frequency: dysgeusia [2, 6]: 0
TEAE frequency: headache [2, 6]: 0
TEAE frequency: sore throat [2, 6]: 0
TEAE frequency: upper respiratory tract infection [2, 6]: 0
Subject incidence of TEAEs considered possibly treatment-related [2, 7]: 0
Subject incidence of any TEAE [2, 7]: 0
TEAE frequency: constipation [2, 7]: 0
TEAE frequency: contact dermatitis [2, 7]: 0
TEAE frequency: dysgeusia [2, 7]: 0
TEAE frequency: headache [2, 7]: 0
TEAE frequency: sore throat [2, 7]: 0
TEAE frequency: upper respiratory tract infection [2, 7]: 0
Subject incidence of TEAEs considered possibly treatment-related [2, 8]: 0
Subject incidence of any TEAE [2, 8]: 2
TEAE frequency: constipation [2, 8]: 0
TEAE frequency: contact dermatitis [2, 8]: 2
TEAE frequency: dysgeusia [2, 8]: 0
TEAE frequency: headache [2, 8]: 0
TEAE frequency: sore throat [2, 8]: 1
TEAE frequency: upper respiratory tract infection [2, 8]: 0
Subject incidence of TEAEs considered possibly treatment-related [2, 9]: 1 (12.5)
Subject incidence of any TEAE [2, 9]: 3 (37.5)
TEAE frequency: constipation [2, 9]: 1 (12.5)
TEAE frequency: contact dermatitis [2, 9]: 0
TEAE frequency: dysgeusia [2, 9]: 1 (12.5)
TEAE frequency: headache [2, 9]: 1 (12.5)
TEAE frequency: sore throat [2, 9]: 0
TEAE frequency: upper respiratory tract infection [2, 9]: 1 (12.5)
plasma PK exposure, dose proportionality ([2]; single dose, between 1 and 10 mg): greater than dose proportional
safety and tolerability ([2]; single oral dose 1 mg to 10 mg): No clinically relevant adverse events or laboratory abnormalities; also recorded: safe and well tolerated

N#Cc1nn(-c2cc(Cl)c(Oc3n[nH]c(=O)c4ccccc34)c(Cl)c2)c(=O)[nH]c1=O [Compound 2, 2-(3,5-dichloro-4-((4-oxo-3,4-dihydrophthalazin-1-yl)oxy)phenyl)-3,5-dioxo-2,3,4,5-tetrahydro-1,2,4-triazine-6-carbonitrile]
Curve area [3]: 24790 ± 3704 ng·h/mL
Peak blood drug concentration [3]: 2007 ± 106 ng/mL
Time to peak [3]: 4.67 ± 1.15 h
half-life ([3]; male, rat, plasma, po): 4.56 ± 0.42 h
AEs by relationship to drug: Not related ([4]; 3 mg QD 14 days (N = 6)): 1 (16.7%) n (%)
AEs by relationship to drug: Possibly related ([4]; 3 mg QD 14 days (N = 6)): 0 n (%)
AEs by relationship to drug: Related ([4]; 3 mg QD 14 days (N = 6)): 0 n (%)
AEs by relationship to drug: Unlikely related ([4]; 3 mg QD 14 days (N = 6)): 0 n (%)
Subject incidence: Any AE, all CTCAE grades ([4]; 3 mg QD 14 days (N = 6)): 1 (16.7%) n (%)
Subject incidence: Grade 1 AEs ([4]; 3 mg QD 14 days (N = 6)): 1 (16.7%) n (%)
Subject incidence: Grade 2 or higher AEs ([4]; 3 mg QD 14 days (N = 6)): 0 n (%)
Subject incidence: Serious AEs ([4]; 3 mg QD 14 days (N = 6)): 0 n (%)
AEs by relationship to drug: Not related ([4]; 6 mg QD 14 days (N = 6)): 0 n (%)
AEs by relationship to drug: Possibly related ([4]; 6 mg QD 14 days (N = 6)): 1 (16.7%) n (%)
AEs by relationship to drug: Related ([4]; 6 mg QD 14 days (N = 6)): 0 n (%)
AEs by relationship to drug: Unlikely related ([4]; 6 mg QD 14 days (N = 6)): 0 n (%)
Subject incidence: Any AE, all CTCAE grades ([4]; 6 mg QD 14 days (N = 6)): 1 (16.7%) n (%)
Subject incidence: Grade 1 AEs ([4]; 6 mg QD 14 days (N = 6)): 1 (16.7%) n (%)
Subject incidence: Grade 2 or higher AEs ([4]; 6 mg QD 14 days (N = 6)): 0 n (%)
Subject incidence: Serious AEs ([4]; 6 mg QD 14 days (N = 6)): 0 n (%)
AEs by relationship to drug: Not related ([4]; 10 mg QD 14 days (N = 6)): 2 (33.3%) n (%)
AEs by relationship to drug: Possibly related ([4]; 10 mg QD 14 days (N = 6)): 0 n (%)
AEs by relationship to drug: Related ([4]; 10 mg QD 14 days (N = 6)): 0 n (%)
AEs by relationship to drug: Unlikely related ([4]; 10 mg QD 14 days (N = 6)): 0 n (%)
Subject incidence: Any AE, all CTCAE grades ([4]; 10 mg QD 14 days (N = 6)): 2 (33.3%) n (%)
Subject incidence: Grade 1 AEs ([4]; 10 mg QD 14 days (N = 6)): 2 (33.3%) n (%)
Subject incidence: Grade 2 or higher AEs ([4]; 10 mg QD 14 days (N = 6)): 0 n (%)
Subject incidence: Serious AEs ([4]; 10 mg QD 14 days (N = 6)): 0 n (%)
Ctau (mean) ([4]; Day 14, 1 mg QD): 25.7 ng/mL
Ctau (mean) ([4]; Day 14, 3 mg QD): 77.9 ng/mL
Ctau (mean) ([4]; Day 14, 6 mg QD): 175 ng/mL
Ctau (mean) ([4]; Day 14, 10 mg QD): 196 ng/mL
GGT ([4]; QD 14 days): Dose-dependent GGT increases
TSH or free T3 ([4]; QD 14 days): without clear change
free T4 ([4]; QD 14 days): declined in dose-dependent fashion
free testosterone levels ([4]; QD 14 days): no significant change
heart rate and blood pressure ([4]; QD 14 days): remained stable
mean ALT values ([4]; QD 14 days): not significantly different from placebo
oral bioavailability and PK variability ([4]; QD 14 days): good oral bioavailability with low PK variability
total testosterone ([4]; QD 14 days): Dose-dependent total testosterone increases
safety and tolerability ([4]; QD 14 days, up to 10 mg): well-tolerated
HDL-c ([4]; day 15): did not significantly change
total cholesterol, LDL-c, Apo B, and triglycerides ([4]; day 15, 10 mg dose cohort): significant reductions
Cmax ([4]; Day 14, 1 mg QD): 80.3 ng/mL
AUC ([4]; Day 14, 1 mg QD): 1090 ng·h/mL
half-life ([4]; Day 14, 1 mg QD): 19.5 h
Cmax ([4]; Day 14, 3 mg QD): 291 ng/mL
AUC ([4]; Day 14, 3 mg QD): 3600 ng·h/mL
half-life ([4]; Day 14, 3 mg QD): 16 h
Cmax ([4]; Day 14, 6 mg QD): 699 ng/mL
AUC ([4]; Day 14, 6 mg QD): 8310 ng·h/mL
half-life ([4]; Day 14, 6 mg QD): 15.8 h
Cmax ([4]; Day 14, 10 mg QD): 996 ng/mL
AUC ([4]; Day 14, 10 mg QD): 10600 ng·h/mL
half-life ([4]; Day 14, 10 mg QD): 15.4 h
SHBG ([4]; multiple doses, even at 3 mg QD): significant and dose-dependent increases
